According to patent US4472305A, “Hexapeptide amides” (Sterling Drug Inc., priority 1983, dated 1984):
Several values for one entry are separate records, joined by “and”; a condition that tells them apart may be missing. Equal values may be shown once. Read-outs that look alike come from different tables or passages of the source. Non-standard residues stand in square brackets, D forms with d. Residues, ends and D or L forms follow the SMILES beside them. Phe(4-Cl) = N[C@@H](Cc1ccc(Cl)cc1)C(=O)O; dNMeW = CN[C@H](Cc1c[nH]c2ccccc12)C(=O)O; NMeF = CN[C@@H](Cc1ccccc1)C(=O)O; hPhe = N[C@@H](CCc1ccccc1)C(=O)O; NMeL = CN[C@@H](CC(C)C)C(=O)O; NMeNle = CCCC[C@H](NC)C(=O)O; NMeM = CN[C@@H](CCSC)C(=O)O; Nle = CCCC[C@H](N)C(=O)O; Sar = CNCC(=O)O

What was measured:
SP receptor [1] = target: T1, SP receptor (Rattus norvegicus, UniProt P14600); test: 3H-SP binding test, rat brain tissue; settings: rat brain tissue (Examples 35-42); for inhibition at 30 µM: 30 μM test compound
T1 construct: from tissue; host or cells: rat submaxillary gland (crude tissue suspension)
Method: (§1) Crude rat submaxillary gland or brain tissue is suspended in buffer containing protease inhibitors (and calcium ions and magnesium ions in the case of brain tissue) and incubated under nitrogen atmosphere with ^3 H-SP and test compound. The bound SP is then separated from free SP by filtration and quantitated by liquid scintillation spectroscopy. This test meets the criteria of reversibility, saturability, sensitivity to known SP agonists and antagonists, and specificity for an SP receptor binding assay.
(§2) With regard to reversibility, addition of unlabelled SP causes a gradual decrease in bound ^3 H-SP, showing that SP is not irreversibly bound to the receptors in the tissue. With regard to saturability, the amount of bound ^3 H-SP in the preparation increases in direct proportion to the concentration of ^3 H-SP added until a saturation point is reached. […] With regard to sensitivity, known SP agonists and antagonists inhibit ^3 H-SP binding.
(§3) The results are expressed either as percent inhibition at a concentration of 30 micromoles per liter (μM) or as an IC50 calculated as the concentration in micromoles per liter.
(§4) The ^3 H-SP binding test results were obtained using rat submaxillary gland tissue for Examples 1-34 and rat brain tissue for Examples 35-42.

SP receptor [2] = target: T1, SP receptor; test: 3H-SP binding test, rat submaxillary gland tissue; settings: for inhibition at 30 µM: read-out: 3H-SP Binding % Inhibition
Method: as §1, §2, §3, §4

[3] = system: longitudinal muscle of guinea pig terminal ileum; test: Guinea pig ileum test (SP agonist and antagonist effect); type: cell-based; settings: for Guinea Pig Ileum % Agonism (potency relative to SP): contraction of ileum longitudinal muscle strips, relative molar potency vs SP
Method: Strips of longitudinal muscle derived from terminal ileum of adult male guinea pigs (Charles River, 400-600 g.) are mounted in 5-ml. organ baths containing oxygenated Krebs solution containing 1 μM each of atropine and pyrilamine maintained at 30-33 C. and connected to isometric transducers. Following tissue equilibration and repeated washing (45-60 min.), SP or an appropriate reference agonist is added cumulatively to the bath and contractions of the tissue are recorded. The bath is washed thoroughly and 30-45 min. is allowed to elapse before construction of a second reference agonist curve to assure reproducibility of the responses. Test compounds are similarly evaluated for agonist activity up to a maximum concentration of 10-100 μM. […] When appropriate, relative molar potency ratios are calculated (EC50 reference/ED50 test drug). […] The effects of several concentrations of test antagonist, pooled across separate experiments, provide dose-ratio (EC50 shift) data for a standard Schild plot analysis, with computation of the pA2.

rat vas deferens = test: Rat vas deferens test (SP antagonist effect); type: cell-based; settings: reversal of potentiation by 10 μM SP of electrically induced contractions
Method: Rat vasa deferentia are suspended in organ baths containing warmed, oxygenated Krebs solution and repetitively field-stimulated (0.1 Hz., 1 msec. duration, monophasic pulses) through platinum wire ring electrodes. Rapid, regular contractions of the muscle are recorded via transducers on a Grass polygraph. SP and related tachykinins added to the bath evoke a dose-dependent, stable potentiation of these electrically-induced contractions. For routine screening, a 10 μM concentration of SP is applied to all tissues to produce a 2-6 fold increase in electrically-stimulated twitch height. SP antagonist compounds (1-30 μM) produce an immediate, dose-related reversal of the response of the tissue to SP, which is quantified by determination of an IC50.

[4] = antagonism of reference agonist, Schild plot analysis
[5] = 30 μM test compound, rat submaxillary gland tissue (Examples 1-34)

T1 sequence (P14600 whole entry): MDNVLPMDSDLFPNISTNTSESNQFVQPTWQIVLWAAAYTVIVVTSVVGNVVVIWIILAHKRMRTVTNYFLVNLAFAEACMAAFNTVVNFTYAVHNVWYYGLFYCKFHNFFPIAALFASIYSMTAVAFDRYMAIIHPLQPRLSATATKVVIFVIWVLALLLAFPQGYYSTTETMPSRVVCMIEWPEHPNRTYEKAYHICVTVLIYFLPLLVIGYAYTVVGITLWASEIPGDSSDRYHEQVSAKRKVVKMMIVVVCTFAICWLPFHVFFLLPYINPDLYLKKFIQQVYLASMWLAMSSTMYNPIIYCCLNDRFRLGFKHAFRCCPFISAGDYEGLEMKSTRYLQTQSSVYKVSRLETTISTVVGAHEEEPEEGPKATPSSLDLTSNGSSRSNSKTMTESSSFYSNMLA

Molecule	inhibition at 30 µM (SP receptor [1]) [%]	Guinea Pig Ileum % Agonism (potency relative to SP) [3] [%]	inhibition at 30 µM (SP receptor [2]; [5]) [%]	other results
CSCC[C@H](NC(=O)[C@H](CC(C)C)NC(=O)[C@@H](Cc1c[nH]c2ccccc12)N(C)C(=O)[C@H](Cc1ccccc1)NC(=O)[C@@H](Cc1c[nH]c2ccccc12)NC(=O)[C@@H]1CCCN1)C(N)=O [Example 41, HPro-DTrp-Phe-MeDTrp-Leu-MetNH2] (H-P[dW]F[dNMeW]LM-NH2)	79	–	–	IC50 (SP receptor [1]): 13.3 µM
CSCC[C@H](NC(=O)[C@H](CC(C)C)NC(=O)[C@@H](Cc1c[nH]c2ccccc12)NC(=O)[C@H](Cc1ccccc1)NC(=O)[C@@H](Cc1c[nH]c2ccccc12)NC(=O)[C@@H]1CCCN1)C(N)=O [Example 17, HPro-DTrp-Phe-DTrp-Leu-MetNH2] (H-P[dW]F[dW]LM-NH2)	–	< 0.01	–	IC50 (SP receptor [2]; 3H-SP Binding IC50(μM), rat submaxillary gland tissue (Examples 1-34)): 9.7 µM and 16.1 µM; Guinea Pig Ileum pA2 [3, 4]: 5.7; IC50 (rat vas deferens): 4.1 µM
CSCC[C@H](NC(=O)[C@H](CC(C)C)N(C)C(=O)[C@@H](Cc1c[nH]c2ccccc12)NC(=O)[C@H](Cc1ccccc1)NC(=O)[C@@H](Cc1c[nH]c2ccccc12)NC(=O)[C@@H]1CCCN1)C(N)=O [Example 35, HPro-DTrp-Phe-DTrp-MeLeu-MetNH2] (H-P[dW]F[dW][NMeL]M-NH2)	46	–	–	IC50 (SP receptor [1]): 43.6 µM; Guinea Pig Ileum pA2 [3, 4]: 6.3
CSCC[C@@H](NC(=O)[C@H](CC(C)C)NC(=O)CNC(=O)[C@H](Cc1ccccc1)NC(=O)[C@H](Cc1ccccc1)NC(=O)[C@@H]1CCCN1)C(N)=O [Example 6, HPro-Phe-Phe-Gly-Leu-DMetNH2] (H-PFFGL[dM]-NH2)	–	4	8	–
CSCC[C@H](NC(=O)[C@H](CC(C)C)NC(=O)CNC(=O)[C@H](Cc1ccccc1)NC(=O)[C@H](Cc1ccccc1)N(C)C(=O)[C@@H]1CCCN1)C(N)=O [Example 40, HPro-MePhe-Phe-Gly-Leu-MetNH2] (H-P[NMeF]FGLM-NH2)	9	–	–	–
CSCC[C@H](NC(=O)[C@H](CC(C)C)NC(=O)[C@@H](Cc1ccccc1)NC(=O)[C@H](CCc1ccccc1)NC(=O)[C@@H](Cc1ccccc1)NC(=O)[C@@H]1CCCN1)C(N)=O [Example 29, HPro-DPhe-Hfe-DPhe-Leu-MetNH2] (H-P[dF][hPhe][dF]LM-NH2)	–	–	–	inhibition at 30 µM (SP receptor [2]): 64%; IC50 (rat vas deferens): > 40 µM
CSCC[C@@H](C(N)=O)N(C)C(=O)[C@H](CC(C)C)NC(=O)[C@@H](Cc1c[nH]c2ccccc12)NC(=O)[C@H](Cc1ccccc1)NC(=O)[C@@H](Cc1c[nH]c2ccccc12)NC(=O)[C@@H]1CCCN1 [Example 36, HPro-DTrp-Phe-DTrp-Leu-MeMetNH2] (H-P[dW]F[dW]L[NMeM]-NH2)	82	–	–	IC50 (SP receptor [1]): 11.5 µM; Guinea Pig Ileum pA2 [3, 4]: 6.3
CSCC[C@H](NC(=O)[C@H](CC(C)C)NC(=O)CNC(=O)[C@H](Cc1ccccc1)NC(=O)[C@H](Cc1ccccc1)NC(=O)[C@H]1CCCN1)C(N)=O [Example 10, HDPro-Phe-Phe-Gly-Leu-MetNH2] (H-[dP]FFGLM-NH2)	–	10	65	–
CSCC[C@H](NC(=O)[C@H](CC(C)C)NC(=O)[C@@H](C)NC(=O)[C@H](Cc1ccccc1)NC(=O)[C@H](Cc1ccccc1)NC(=O)[C@@H]1CCCN1)C(N)=O [Example 1, HPro-Phe-Phe-DAla-Leu-MetNH2] (H-PFF[dA]LM-NH2)	–	0.7	17	–
CCCC[C@@H](C(N)=O)N(C)C(=O)[C@H](CC(C)C)NC(=O)[C@@H](Cc1c[nH]c2ccccc12)NC(=O)[C@H](Cc1ccccc1)NC(=O)[C@@H](Cc1c[nH]c2ccccc12)NC(=O)[C@@H]1CCCN1 [Example 42, HPro-DTrp-Phe-DTrp-Leu-MeNleNH2] (H-P[dW]F[dW]L[NMeNle]-NH2)	81	–	–	–
CSCC[C@H](NC(=O)[C@H](CC(C)C)NC(=O)[C@H](CCC(=O)O)NC(=O)[C@H](Cc1ccccc1)NC(=O)[C@H](Cc1ccccc1)NC(=O)[C@@H]1CCCN1)C(N)=O [Example 15, HPro-Phe-Phe-Glu-Leu-MetNH2] (H-PFFELM-NH2)	–	0.004	10	–
CSCC[C@H](NC(=O)[C@H](CC(C)C)NC(=O)CNC(=O)[C@H](Cc1ccc(Cl)cc1)NC(=O)[C@H](Cc1ccc(Cl)cc1)NC(=O)[C@@H]1CCCN1)C(N)=O [Example 37, HPro-Pcp-Pcp-Gly-Leu-MetNH2] (H-P[Phe(4-Cl)][Phe(4-Cl)]GLM-NH2)	62	–	–	–
CSCC[C@H](NC(=O)[C@H](CC(C)C)NC(=O)[C@@H](CCCNC(=N)N)NC(=O)[C@H](Cc1ccccc1)NC(=O)[C@@H](Cc1c[nH]c2ccccc12)NC(=O)[C@@H]1CCCN1)C(N)=O [Example 34, HPro-DTrp-Phe-DArg-Leu-MetNH2] (H-P[dW]F[dR]LM-NH2)	–	5.2	20	–
CSCC[C@H](NC(=O)[C@H](CC(C)C)NC(=O)[C@@H](Cc1c[nH]c2ccccc12)NC(=O)CNC(=O)[C@@H](Cc1c[nH]c2ccccc12)NC(=O)[C@@H]1CCCN1)C(N)=O [Example 39, HPro-DTrp-Gly-DTrp-Leu-MetNH2] (H-P[dW]G[dW]LM-NH2)	46	–	–	–
CSCC[C@H](NC(=O)[C@@H](CC(C)C)NC(=O)CNC(=O)[C@H](Cc1ccccc1)NC(=O)[C@H](Cc1ccccc1)NC(=O)[C@@H]1CCCN1)C(N)=O [Example 4, HPro-Phe-Phe-Gly-DLeu-MetNH2] (H-PFFG[dL]M-NH2)	–	0.3	17	–
CCCC[C@H](NC(=O)[C@H](CC(C)C)NC(=O)CNC(=O)[C@H](Cc1ccccc1)NC(=O)[C@H](Cc1ccccc1)NC(=O)[C@@H]1CCCN1)C(N)=O [Example 8, HPro-Phe-Phe-Gly-Leu-NleNH2] (H-PFFGL[Nle]-NH2)	–	3	49	–
CSCC[C@H](NC(=O)[C@H](CC(C)C)NC(=O)CNC(=O)[C@H](Cc1ccccc1)NC(=O)[C@@H](Cc1ccccc1)NC(=O)[C@@H]1CCCN1)C(N)=O [Example 9, HPro-DPhe-Phe-Gly-Leu-MetNH2] (H-P[dF]FGLM-NH2)	–	0.0009	22	Guinea Pig Ileum pA2 [3]: 5.6
HPro-Phe-D,LBpa-Gly-Leu-MetNH2 [Example 18]	–	33	–	3H-SP Binding % Inhibition (SP receptor [2]; [5]): 90%
CSCC[C@H](NC(=O)[C@H](CC(C)C)NC(=O)[C@@H](Cc1c[nH]c2ccccc12)NC(=O)[C@H](Cc1ccccc1)N(C)C(=O)[C@@H](Cc1c[nH]c2ccccc12)NC(=O)[C@@H]1CCCN1)C(N)=O [Example 38, HPro-DTrp-MePhe-DTrp-Leu-MetNH2] (H-P[dW][NMeF][dW]LM-NH2)	68	–	–	–
CSCC[C@H](NC(=O)[C@H](CC(C)C)NC(=O)CN(C)C(=O)[C@H](Cc1ccccc1)NC(=O)[C@H](Cc1ccccc1)NC(=O)[C@@H]1CCCN1)C(N)=O [Example 3, HPro-Phe-Phe-Sar-Leu-MetNH2] (H-PFF[Sar]LM-NH2)	–	27	93	–
CSCC[C@H](NC(=O)[C@H](CC(C)C)NC(=O)CNC(=O)[C@@H](Cc1ccccc1)NC(=O)[C@H](Cc1ccccc1)NC(=O)[C@@H]1CCCN1)C(N)=O [Example 7, HPro-Phe-DPhe-Gly-Leu-MetNH2] (H-PF[dF]GLM-NH2)	–	0.7	48	–
CCCC[C@H](NC(=O)[C@H](CC(C)C)NC(=O)[C@@H](Cc1ccccc1)NC(=O)[C@H](Cc1ccccc1)NC(=O)[C@@H](Cc1ccccc1)NC(=O)[C@@H]1CCCN1)C(N)=O [Example 31, HPro-DPhe-Phe-DPhe-Leu-NleNH2] (H-P[dF]F[dF]L[Nle]-NH2)	–	–	–	inhibition at 30 µM (SP receptor [2]): 47%; IC50 (rat vas deferens): 30 µM
